Patent US11639350B2, “Heteroaryldihydropyrimidine derivatives and methods of treating hepatitis B infections” (Janssen Pharmaceutica NV, priority 2018, dated 2023)
Read-outs that look alike come from different tables or passages of the source.

Tests used:
[1] = tested on: HBV; assay: HBV inhibitory activity: HBV DNA in the culture medium of HepG2.2.15 cells by q-PCR; assay type: cell-based; conditions: HepG2.2.15 cells, 6 days of compound treatment, HBV DNA in culture medium by q-PCR, highest concentration 10 μM, read-out: EC50
How it was run: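 Supernatant HBV DNA quantified by q-PCR after a 6-day compound exposure, with one mid-course medium change, of HepG2.2.15 cells (stably integrated HBV; 40,000 per well, 2% FBS). Eight-point 3-fold series topped at 10 μM for antiviral EC50; separate plates of 5,000 cells per well with 100 μM top give CC50.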

[2] = tested on: HepG2.2.15 cells; assay: Cytotoxicity determination in HepG2.2.15 cells (CCK-8); assay type: cell-based; conditions: 6 days of compound treatment, CCK-8, highest concentration 100 μM
How it was run: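 CC50 is from CCK-8 absorbance (450 nm, 630 nm reference) after 2.5 h with reagent. Before that, compounds were applied for six days, top concentration 100 μM, eight threefold dilutions, one mid-course medium change, to stably HBV-integrated HepG2.2.15 cells plated at 5,000/well in 2% FBS.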

Row | Compound | EC50 [1] [nM] | CC50 [2] [µM] | EC50 ([1]; Hepatitis B virus, HepG2.2.15, 144 h) [nM]
1 | COC(=O)C1=C(C2CCN(S(=O)(=O)C3CC(O)C3)CC2)NC(c2nccs2)=NC1c1ccc(F)cc1Cl (single isomer, unassigned) [Compound 335B, Methyl 4-(2-chloro-4-fluorophenyl)-6-(1-((3-hydroxycyclobutyl)sulfonyl)piperidin-4-yl)-2-(thiazol-2-yl)-1,4-dihydropyrimidine-5-carboxylate] | 13 | 15.2 | 
2 | COC(=O)C1=C(C2CCC(NC(C)=O)C2)NC(c2nccs2)=NC1c1cccc(F)c1Cl (single isomer, unassigned) [Compound 62B, Methyl 6-(3-acetamidocyclopentyl)-4-(2-chloro-3-fluorophenyl)-2-(thiazol-2-yl)-1,4-dihydropyrimidine-5-carboxylate] | 63 | 22.9 | 
3 | CCOC(=O)C1=C(C2CCN(S(=O)(=O)[C@H]3C[C@](C)(C(=O)O)C3)CC2)NC(c2nccs2)=NC1c1ccc(F)c(F)c1Cl (stereo partly drawn) [Compound 270A, (trans)-3-((4-(6-(2-Chloro-3,4-difluorophenyl)-5-(ethoxycarbonyl)-2-(thiazol-2-yl)-3,6-dihydropyrimidin-4-yl)piperidin-1-yl)sulfonyl)-1-methylcyclobutanecarboxylic Acid] | 12 | 9.2 | 
4 | COC(=O)C1=C(C2CCC(NS(C)(=O)=O)C2)NC(c2nccs2)=NC1c1cccc(F)c1Cl (single isomer, unassigned) [Compound 61D, Methyl 4-(2-chloro-3-fluorophenyl)-6-(3-(methylsulfonamido)-cyclopentyl)-2-(thiazol-2-yl)-1,4-dihydropyrimidine-5-carboxylate] | 35 | 33.4 | 
5 | CCOC(=O)C1=C([C@@H]2C[C@H]2CC(=O)O)NC(c2nccs2)=NC1c1ccc(F)cc1Cl (single isomer, unassigned) [Compound 93, 2-(trans-2-(6-(2-Chloro-4-fluorophenyl)-5-(ethoxycarbonyl)-2-(thiazol-2-yl)-3,6-dihydropyrimidin-4-yl)cyclopropyl)acetic Acid] | 507 | 92.5 | 
6 | COC(=O)C1=C([C@H]2CC[C@H](NS(C)(=N)=O)CC2)NC(c2nccs2)=NC1c1ccc(F)cc1Cl (single isomer, unassigned) [Compound 287B, Methyl 4-(2-chloro-4-fluorophenyl)-6-((trans)-4-(methylsulfonoimidamido)cyclohexyl)-2-(thiazol-2-yl)-1,4-dihydropyrimidine-5-carboxylate] |  | 23.1 | 72
7 | COC(=O)C1=C(C2CCCOC2)NC(c2nccs2)=NC1c1ccc(F)cc1Cl (single isomer, unassigned) [Compound 48D, Methyl 4-(2-chloro-4-fluorophenyl)-6-(tetrahydro-2H-pyran-3-yl)-2-(thiazol-2-yl)-1,4-dihydropyrimidine-5-carboxylate] | 210 | > 100 | 
8 | COC(=O)C1=C(C2CCN(S(=O)(=O)CC(O)CO)CC2)NC(c2nccs2)=NC1c1ccc(F)cc1Cl (single isomer, unassigned) [Compound 305B, Methyl 4-(2-chloro-4-fluorophenyl)-6-(1-((2,3-dihydroxypropyl)sulfonyl)piperidin-4-yl)-2-(thiazol-2-yl)-1,4-dihydropyrimidine-5-carboxylate] | 25 | 34.5 | 
9 | COC(=O)C1=C(C2CCN(S(=O)(=O)C3CC(C)(C(=O)O)C3)CC2)NC(c2nccs2)=NC1c1ccc(F)cc1Cl (stereo not drawn) [Compound 142, (cis)-3-((4-(6-(2-chloro-4-fluorophenyl)-5-(methoxycarbonyl)-2-(thiazol-2-yl)-3,6-dihydropyrimidin-4-yl)piperidin-1-yl)sulfonyl)-1-methylcyclobutane-1-carboxylic Acid] | 89 | 37.6 | 
10 | CCOC(=O)C1=C([C@@H]2CC[C@H](C(=O)O)OC2)NC(c2nccs2)=NC1c1ccc(F)cc1Cl (single isomer, unassigned) [Compound 265H, (cis)-5-(−6-(2-Chloro-4-fluorophenyl)-5-(ethoxycarbonyl)-2-(thiazol-2-yl)-3,6-dihydropyrimidin-4-yl)tetrahydro-2H-pyran-2-carboxylic Acid] | 214 | > 100 | 
11 | COC(=O)C1=C(C2CCN(S(=O)(=O)C3CC(C)(C(=O)O)C3)CC2)NC(c2nccs2)=NC1c1ccc(F)cc1Br (single isomer, unassigned) [Compound 410D, cis-3-((4-(6-(2-Bromo-4-fluorophenyl)-5-(methoxycarbonyl)-2-(thiazol-2-yl)-3,6-dihydropyrimidin-4-yl)piperidin-1-yl)sulfonyl)-1-methylcyclobutanecarboxylic Acid] | 43 | 23.7 | 
12 | COC(=O)C1=C(C2CCN(S(=O)(=O)C3CC(C)(C(=O)O)C3)CC2)NC(c2nccs2)=NC1c1cccc(F)c1Br (stereo not drawn) [Compound 278C, (trans)-3-((4-(6-(2-bromo-3-fluorophenyl)-5-(methoxycarbonyl)-2-(thiazol-2-yl)-3,6-dihydropyrimidin-4-yl)piperidin-1-yl)sulfonyl)-1-methylcyclobutanecarboxylic Acid] | 45 | 18.9 | 
13 | CCOC(=O)C1=C(C2CCN(S(=O)(=O)C3CC(C)(C(=O)O)C3)CC2)NC(c2nccs2)=NC1c1ccc(F)c(F)c1Cl (stereo not drawn) [Compound 270B, (cis)-3-((4-(6-(2-Chloro-3,4-difluorophenyl)-5-(ethoxycarbonyl)-2-(thiazol-2-yl)-3,6-dihydropyrimidin-4-yl)piperidin-1-yl)sulfonyl)-1-methylcyclobutanecarboxylic Acid] | 17 | 10.3 | 
14 | COC(=O)C1=C(C2CCN(S(=O)(=O)CC3(C)CCC(C(=O)O)CC3)CC2)NC(c2nccs2)=NC1c1ccc(F)c(F)c1Cl (single isomer, unassigned) [Compound 452A, (cis)-4-(((4-(6-(2-Chloro-3,4-difluorophenyl)-5-(methoxycarbonyl)-2-(thiazol-2-yl)-3,6-dihydropyrimidin-4-yl)piperidin-1-yl)sulfonyl)methyl)-4-methylcyclohexanecarboxylic Acid] | 6 | 9.7 | 
15 | COC(=O)C1=C(C2CCC(=O)N2)NC(c2nccs2)=NC1c1cccc(F)c1Cl (single isomer, unassigned) [Compound 75D, Methyl 4-(2-chloro-3-fluorophenyl)-6-(5-oxopyrrolidin-2-yl)-2-(thiazol-2-yl)-1,4-dihydropyrimidine-5-carboxylate] | 45 | 10.2 | 
16 | COC(=O)C1=C(C2CCOC2)NC(c2nccs2)=NC1c1cccc(F)c1Cl (single isomer, unassigned) [Compound 74D, Methyl 4-(2-chloro-3-fluorophenyl)-6-(tetrahydrofuran-3-yl)-2-(thiazol-2-yl)-1,4-dihydropyrimidine-5-carboxylate] | 303 | 84.5 | 
17 | COC(=O)C1=C(C2CCOC2)NC(c2nccs2)=NC1c1cccc(F)c1Cl (single isomer, unassigned) [Compound 74A, Methyl 4-(2-chloro-3-fluorophenyl)-6-(tetrahydrofuran-3-yl)-2-(thiazol-2-yl)-1,4-dihydropyrimidine-5-carboxylate] | 88 | 33 | 
18 | COC(=O)C1=C(C2CCC(=O)N2)NC(c2nccs2)=NC1c1cccc(F)c1Cl (single isomer, unassigned) [Compound 75A, Methyl 4-(2-chloro-3-fluorophenyl)-6-(5-oxopyrrolidin-2-yl)-2-(thiazol-2-yl)-1,4-dihydropyrimidine-5-carboxylate] | 213 | 32.3 | 
19 | COC(=O)C1=C(C2CCN(S(=O)(=O)[C@H]3C[C@H](C(=O)O)C3)CC2)NC(c2nccs2)=NC1c1ccc(F)c(F)c1Cl (single isomer, unassigned) [Compound 232X, (trans)-3-((4-(6-(2-Chloro-3,4-difluorophenyl)-5-(methoxycarbonyl)-2-(thiazol-2-yl)-3,6-dihydropyrimidin-4-yl)piperidin-1-yl)sulfonyl)cyclobutanecarboxylic Acid] | 105 | 70 | 
20 | COC(=O)C1=C(C2CCCC(C(=O)O)CC2)NC(c2nccs2)=NC1c1ccc(F)cc1Cl (single isomer, unassigned) [Compound 95E, 4-(6-(2-Chloro-4-fluorophenyl)-5-(methoxycarbonyl)-2-(thiazol-2-yl)-3,6-dihydropyrimidin-4-yl)cycloheptanecarboxylic Acid] | 141 | 75 | 
21 | CCOC(=O)C1=C(C2CCN(S(=O)(=O)CC3CC(C(=O)O)C3)CC2)NC(c2nccs2)=NC1c1ccc(F)c(F)c1Cl (centres unmarked) [Compound 480Y, 3-(((4-(6-(2-Chloro-3,4-difluorophenyl)-5-(ethoxycarbonyl)-2-(thiazol-2-yl)-3,6-dihydropyrimidin-4-yl)piperidin-1-yl)sulfonyl)methyl)cyclobutanecarboxylic Acid] | 11 | 10.2 | 
22 | COC(=O)C1=C(C2CCN(S(=O)(=O)C3CC(C)(C(=O)OC)C3)CC2)NC(c2nccs2)=NC1c1ccc(F)c(F)c1Cl (single isomer, unassigned) [Compound 323C, trans-methyl 4-(2-chloro-3,4-difluorophenyl)-6-(1-((3-(methoxycarbonyl)-3-methylcyclobutyl)sulfonyl)piperidin-4-yl)-2-(thiazol-2-yl)-1,4-dihydropyrimidine-5-carboxylate] | 10 | 24.1 | 
